Measured values: ChEMBL document CHEMBL4422691, “Identification of C-6 as a New Site for Linker Conjugation to the Taccalonolide Microtubule Stabilizers” (J Nat Prod, 2019)
Calls of active or inactive are those of the source. No cut-off for these calls is given here.

Assays:
Tubulin (Sus scrofa) [1] = target: T1, Tubulin (Sus scrofa) (UniProt P02554+P02550); experiment: Induction of porcine tubulin polymerization at 5 to 10 uM measured at 1 min interval for 1 hr; assay type: protein assay
Tubulin (Homo sapiens) [2] = target: T2, Tubulin (Homo sapiens) (UniProt P68371+Q9H4B7+P0DPH7+P68366+Q13509+Q71U36+P04350+Q3ZCM7+P07437+P68363+Q9BQE3+Q6PEY2+Q13885+Q9BVA1+Q9BUF5); experiment: Induction of microtubule stabilization in human HCC1937 cells assessed as co-localization of compound with microtubule at 5 uM after 24 hrs by fluorescence assay; assay type: cell-based
[3] = Stability of the compound in aqueous solution after 24 hrs; assay type: physicochemical; conditions: buffer
Tubulin (Homo sapiens) [4] = target: T2, Tubulin (Homo sapiens); experiment: Induction of microtubule stabilization in human HCC1937 cells assessed as bundling of microtubules at 5 uM after 24 hrs by immunofluorescence assay; assay type: cell-based
HeLa = experiment: Antiproliferative activity against human HeLa cells after 48 hrs by sulforhodamine B assay; assay type: functional, cell-based
Tubulin (Homo sapiens) [5] = target: T2, Tubulin (Homo sapiens); experiment: Induction of microtubule stabilization in human HCC1937 cells at 5 uM after 6 hrs by live cell fluorescence imaging; assay type: cell-based
Tubulin (Sus scrofa) [6] = target: T1, Tubulin (Sus scrofa); experiment: Induction of porcine tubulin polymerization measured at 1 min interval for 1 hr; assay type: protein assay

T1 sequence (P02550 whole entry, looked up): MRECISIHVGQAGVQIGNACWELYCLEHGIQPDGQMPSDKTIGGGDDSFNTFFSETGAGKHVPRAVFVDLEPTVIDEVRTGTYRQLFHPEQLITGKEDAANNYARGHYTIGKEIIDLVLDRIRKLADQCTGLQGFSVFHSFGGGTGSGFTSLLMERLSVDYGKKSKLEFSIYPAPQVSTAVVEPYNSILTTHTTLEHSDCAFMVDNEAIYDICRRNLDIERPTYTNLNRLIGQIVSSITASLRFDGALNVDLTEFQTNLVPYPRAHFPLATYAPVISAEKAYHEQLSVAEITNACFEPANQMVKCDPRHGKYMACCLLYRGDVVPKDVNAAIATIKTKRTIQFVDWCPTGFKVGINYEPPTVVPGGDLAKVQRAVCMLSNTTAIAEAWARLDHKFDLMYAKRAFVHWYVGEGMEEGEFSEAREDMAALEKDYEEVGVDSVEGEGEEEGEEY
T1 sequence (P02554 whole entry, looked up): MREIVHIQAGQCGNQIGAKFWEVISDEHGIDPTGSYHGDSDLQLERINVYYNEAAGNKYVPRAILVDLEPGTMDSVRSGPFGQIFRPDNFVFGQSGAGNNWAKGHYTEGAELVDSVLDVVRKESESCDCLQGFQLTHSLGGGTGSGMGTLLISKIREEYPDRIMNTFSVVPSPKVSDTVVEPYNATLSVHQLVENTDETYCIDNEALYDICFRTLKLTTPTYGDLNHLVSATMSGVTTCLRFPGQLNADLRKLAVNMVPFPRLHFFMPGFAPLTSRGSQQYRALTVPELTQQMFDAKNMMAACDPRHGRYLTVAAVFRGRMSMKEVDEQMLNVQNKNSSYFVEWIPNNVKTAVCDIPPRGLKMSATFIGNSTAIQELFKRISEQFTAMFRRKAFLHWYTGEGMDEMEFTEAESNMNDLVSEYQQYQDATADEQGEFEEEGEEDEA

Activity (Tubulin (Sus scrofa) [1]) | Activity (Tubulin (Homo sapiens) [2]) | Stability [3] | Activity (Tubulin (Homo sapiens) [4]) | IC50 (HeLa) [nM] | Activity (Tubulin (Homo sapiens) [5]) | Activity (Tubulin (Sus scrofa) [6]) | SMILES
Active | Active | Stable | Active | 2500 | Active | – | CC(=O)O[C@H]1[C@H]2[C@@H]([C@@H](O)[C@@H](OC(=O)CCCCn3cc(COc4ccc5c(c4)Oc4cc(O)ccc4C54OC(=O)c5ccccc54)nn3)[C@H]3C[C@@H]4O[C@@H]4[C@H](OC(C)=O)[C@]23C)[C@@H]2[C@@H](O)[C@@H]3[C@H]([C@H](C)[C@H]4O[C@]45OC(=O)[C@@](C)(O)[C@]35C)[C@@]2(C)[C@H]1OC(C)=O (some centres not stated)
– | – | – | – | – | – | Dose-dependent effect | CC(=O)O[C@H]1[C@H]2[C@H]([C@@H]3[C@@H](O)[C@@H]4[C@H]([C@H](C)[C@@H]5O[C@@]56OC(=O)[C@@](C)(O)[C@]46C)[C@@]3(C)[C@H]1OC(C)=O)[C@@H](O)C(=O)[C@H]1C[C@@H]3O[C@@H]3[C@H](OC(C)=O)[C@]21C
